This note sets out measurements from US7101831B2, “Compositions of material, especially lubricants and pressure transmitting means, the production and use thereof” (Fuchs Petrolub AG, priority 2000, dated 2006).

What all share (assay type): physicochemical
One data set can be described thus: Pour point. An excerpt:
(§1) Example 27 illustrates the properties of the methyl formyloxystearate and methyl [2,2-dimethylpropionyloxy]-stearate esters prepared according to examples 1 and 4 compared to pure methyl oleate (base raw material).

Data set [1] in a line: ROBOT oxidation stability test. The note with it: 35 g of lubricant; 6.25 bar of oxygen; T = 120° C., without catalyst.
The nature of a further data set: Viscosity index (VI).
Text: as §1

A short description of data set [2]: Kinematic viscosity (KV) of the esters compared to methyl oleate.
Text: as §1

The next data set in a line: Density.
Text: as §1

In turn, “methyl 9(10)-formyloxystearate [Methyl formyloxystearate]” registered a Pour point in the data set “Pour point” of −18 °C. Further, the ROBOT in data set [1] is recorded as 165 min. This compound had a VI in the data set “Viscosity index (VI)” of 120. Moreover, in data set [2], the “KV (40° C.)” value amounted to 12.0 mm^2/s and the “KV (100° C.)” value was determined as 3.1 mm^2/s. Besides, the “Density (15° C.)” value in “Density” is listed as 933.65 kg/m^3.

For the compound `CCCCCCCC/C=C\CCCCCCCC(=O)OC` [Methyl oleate, methyl oleate, reference compound], the Pour point in “Pour point” was −18 °C. In data set [1], this compound showed an ROBOT of 10 min. Moreover, the VI in the data set “Viscosity index (VI)” came to 178. Moreover, in data set [2], the “KV (40° C.)” value was found to be 4.5 mm^2/s and the “KV (100° C.)” value was found to be 1.7 mm^2/s.

In “Pour point”, `CCCCCCCCCC(CCCCCCCC(=O)OC)OC(=O)C(C)(C)C` (centres unmarked) [methyl 9-(10)-[2,2′-dimethylpropionyloxy]stearate] had a Pour point of −9 °C. In addition, in data set [1], the ROBOT is recorded as 27 min. Besides, in “Viscosity index (VI)”, the VI came to 139. For the same compound, in data set [2], the “KV (40° C.)” value was determined as 13.1 mm^2/s and the “KV (100° C.)” value is on record as 3.4 mm^2/s. Besides, in the data set “Density”, the “Density (15° C.)” value was found to be 902.73 kg/m^3.
